{"source": "patent US7708990B2", "about": "“Coenzyme Q compositions persisting in blood” (Kaneka Corporation, priority 2004, dated 2010)", "assay": "Plasma coenzyme Q10 levels after oral administration to rats (HPLC assay)", "assay_type": "in vivo, male SD strain rats", "conditions": "plasma coenzyme Q10 (reduced + oxidized), oral 100 mg/kg in soybean oil", "experimental": "A solution of reduced coenzyme Q10 (containing 1% by weight of oxidized coenzyme Q10) in soybean oil (reduced coenzyme Q10/soybean oil solution=20 mg/ml) was orally administered to male SD strain rats (6 weeks of age) at a dose of reduced coenzyme Q10 (containing 1% by weight of oxidized coenzyme Q10) of 100 mg/kg and, after 0.5, 1, 2, 3, 4, 5, 6, 8, 12 and 24 hours after administration, blood samples were collected and used for assaying plasma coenzyme Q10 (reduced coenzyme Q10 and oxidized coenzyme Q10) (n=4). Plasma coenzyme Q10 was assayed by HPLC. Thus, coenzyme Q7 (0.003 mg), ethanol (1 ml), distilled water (1 ml) and ferric chloride (0.01%) were added to each rat plasma sample (0.2 ml) and, after mixing up, hexane (3 ml) was added thereto and coenzyme Q10 was extracted with shaking. […]\nReduced coenzyme Q10 (containing 3% by weight of oxidized coenzyme Q10) was administered in the same manner as in Example 1, and plasma coenzyme Q10 levels were determined.\nOxidized coenzyme Q10 was administered in the same manner as in Example 1, and plasma coenzyme Q10 levels were determined.\nReduced coenzyme Q10 (containing 5% by weight of oxidized coenzyme Q10) was administered in the same manner as in Example 1, and plasma coenzyme Q10 levels were determined."}
{"smiles": "COC1=C(OC)C(=O)C(C/C=C(\\C)CC/C=C(\\C)CC/C=C(\\C)CC/C=C(\\C)CC/C=C(\\C)CC/C=C(\\C)CC/C=C(\\C)CC/C=C(\\C)CC/C=C(\\C)CCC=C(C)C)=C(C)C1=O", "note": "[Comparative Example 1, Oxidized coenzyme Q10]", "values": [{"measurement": "Cmax", "setting": "n=4", "result": 1730, "unit": "ng/mL"}, {"measurement": "AUC", "setting": "n=4, sampling up to 24 hours", "result": 12900, "unit": "ng·h/mL"}]}
